Assays:
[1] = target: T1, AChE (Electrophorus electricus) (Electrophorus electricus, UniProt O42275); assay: AChE inhibition, Ellman's method; assay type: biochemical
T1 construct: purchased Sigma-Aldrich (Steinheim, Germany)
Method: (§1) The assay was performed in two steps.
(§2) All enzymes were obtained from Sigma-Aldrich (Steinheim, Germany). Ellman’s reagent and the substrates were obtained from Fluka (Buchs, Switzerland). The chemicals used to prepare the buffer solution were purchased from Merck (Darmstadt, Germany).
(§3) The enzyme inhibitory activities of the synthesized compounds were investigated by applying Ellman’s method. Enzyme solutions were dissolved in gelatin solution (1%; 2.5 units/mL). […] Then, the reaction was initiated by the addition of Ellman’s reagent 5,5′-Dithiobis(2-nitrobenzoic acid) (DTNB; 20 µL/well, 10 mM) and the substrate (10 µL/well, 75 mM). […] The enzyme solution was processed as a control. All readings were adjusted with blank-reading. All assays were performed in four independent wells. […] Absorbance differences between the two readings were taken, and percentage inhibition rates were calculated according to the following formula: % Inhibition=[(A(C)−A(B))−(A(I)−A(B))]/(A(C)−A(B))×100.
(§4) • Blank (B): the well in which the inhibitor compound and substrate were not added; • Control (C): the well where the inhibitor compound was not added; • A(B): the difference in absorbance reading for the blank; • A(C): the difference in absorbance reading for the control; • A(I): the difference in absorbance reading for the inhibitor compounds.

AChE (Human) = target: T2, AChE (Human) (Homo sapiens, UniProt P22303); assay: AChE inhibition, Ellman's method; assay type: biochemical
T2 construct: purchased Sigma-Aldrich (Steinheim, Germany)
Method: as §1, §2, §3, §4

BChE (Equine) = target: T3, BChE (Equine) (Equus caballus, UniProt P81908); assay: biochemical; assay type: biochemical
T3 construct: purchased Sigma-Aldrich (Steinheim, Germany)
Method: as §1, §2, §3, §4

BChE (Human) = target: T4, BChE (Human) (Homo sapiens, UniProt P06276); assay: BChE inhibition, Ellman's method; assay type: biochemical; conditions: for IC50: read-out: BChE (Human) IC50
T4 construct: purchased Sigma-Aldrich (Steinheim, Germany)
Method: as §1, §2, §3, §4

[2] = system: murine fibroblast healthy cell line (NIH3T3); assay: MTT cell viability assay; assay type: cell-based; conditions: 24 h, 0.000316 µM to 1000 µM, read-out: IC50 against NIH3T3
Method: The active compounds (4a, 4b, 4e, 4i, 4m, 4n, 4o, and 4t) were chosen to determine their cytotoxic activity toward a murine fibroblast healthy cell line (NIH3T3). After incubating the cells with active compounds at concentrations of 0.000316 µM to1000 µM for 24 h, the cell viability was measured using the 3-(4,5-dimethylthiazol-2-yl)-2,5-diphenyltetrazolium (MTT) assay. The inhibition percentage was calculated for each concentration of the test compounds. The IC50 values of the compounds were determined using a non-linear regression analysis over the calculated percentage inhibition values, and they are presented in Table 2. Accordingly, the cytotoxicity test proposed that the active derivatives were nontoxic against NIH3T3 cells at their active concentrations against BChE.
Healthy murine embryonic fibroblast cells (NIH3T3 cell line) were used for the cytotoxicity tests. The cell line and selected compounds were prepared for an MTT assay as reported previously. The optical densities (OD) of 96 well plates were recorded at 540 nm. […]

T2 sequence (P22303 32-614): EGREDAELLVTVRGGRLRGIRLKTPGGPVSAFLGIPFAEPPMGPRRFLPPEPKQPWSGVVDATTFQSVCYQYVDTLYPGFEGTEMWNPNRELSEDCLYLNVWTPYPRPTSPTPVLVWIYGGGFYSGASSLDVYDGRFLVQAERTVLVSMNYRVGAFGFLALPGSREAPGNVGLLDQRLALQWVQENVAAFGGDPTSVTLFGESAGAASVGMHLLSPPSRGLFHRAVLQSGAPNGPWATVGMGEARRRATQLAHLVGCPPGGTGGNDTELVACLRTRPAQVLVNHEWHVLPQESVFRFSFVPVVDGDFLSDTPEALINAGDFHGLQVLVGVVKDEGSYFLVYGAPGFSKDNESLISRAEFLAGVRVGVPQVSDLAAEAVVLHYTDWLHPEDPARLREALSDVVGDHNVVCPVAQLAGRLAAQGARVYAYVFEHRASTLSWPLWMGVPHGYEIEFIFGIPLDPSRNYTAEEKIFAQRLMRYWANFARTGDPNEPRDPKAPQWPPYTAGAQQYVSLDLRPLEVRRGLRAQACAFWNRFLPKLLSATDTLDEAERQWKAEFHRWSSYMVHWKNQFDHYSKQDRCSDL
T1 sequence (O42275 24-633): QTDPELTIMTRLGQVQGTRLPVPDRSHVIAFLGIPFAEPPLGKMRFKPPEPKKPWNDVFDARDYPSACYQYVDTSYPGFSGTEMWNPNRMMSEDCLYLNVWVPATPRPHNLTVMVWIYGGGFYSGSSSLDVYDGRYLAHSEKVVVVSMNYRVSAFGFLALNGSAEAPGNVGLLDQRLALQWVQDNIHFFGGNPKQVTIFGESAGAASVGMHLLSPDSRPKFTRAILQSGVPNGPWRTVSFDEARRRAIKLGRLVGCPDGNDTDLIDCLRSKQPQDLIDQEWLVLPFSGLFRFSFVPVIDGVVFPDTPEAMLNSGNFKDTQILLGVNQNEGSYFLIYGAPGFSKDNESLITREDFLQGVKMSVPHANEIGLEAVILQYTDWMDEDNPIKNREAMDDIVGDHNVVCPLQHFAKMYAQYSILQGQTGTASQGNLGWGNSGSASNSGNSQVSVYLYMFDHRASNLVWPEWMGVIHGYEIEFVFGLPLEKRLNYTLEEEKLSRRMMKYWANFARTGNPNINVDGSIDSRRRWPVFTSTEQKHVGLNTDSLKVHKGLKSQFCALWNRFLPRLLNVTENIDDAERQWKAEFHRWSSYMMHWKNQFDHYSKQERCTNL
T4 sequence (P06276 29-602): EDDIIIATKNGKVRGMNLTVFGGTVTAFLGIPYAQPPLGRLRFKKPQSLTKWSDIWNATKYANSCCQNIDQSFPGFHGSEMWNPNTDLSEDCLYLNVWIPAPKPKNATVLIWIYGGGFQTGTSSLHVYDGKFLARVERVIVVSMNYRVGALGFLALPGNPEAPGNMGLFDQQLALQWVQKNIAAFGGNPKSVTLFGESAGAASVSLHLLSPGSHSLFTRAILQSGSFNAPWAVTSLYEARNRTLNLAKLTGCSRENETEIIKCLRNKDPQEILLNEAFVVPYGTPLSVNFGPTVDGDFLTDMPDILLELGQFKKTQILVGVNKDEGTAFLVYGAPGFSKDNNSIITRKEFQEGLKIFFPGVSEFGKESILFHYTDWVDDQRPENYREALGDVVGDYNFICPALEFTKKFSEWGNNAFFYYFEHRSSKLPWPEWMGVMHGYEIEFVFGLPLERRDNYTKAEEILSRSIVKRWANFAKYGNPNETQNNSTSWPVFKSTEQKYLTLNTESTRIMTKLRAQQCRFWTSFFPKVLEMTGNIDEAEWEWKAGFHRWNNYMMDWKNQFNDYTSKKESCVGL
T3 sequence (P81908 whole entry): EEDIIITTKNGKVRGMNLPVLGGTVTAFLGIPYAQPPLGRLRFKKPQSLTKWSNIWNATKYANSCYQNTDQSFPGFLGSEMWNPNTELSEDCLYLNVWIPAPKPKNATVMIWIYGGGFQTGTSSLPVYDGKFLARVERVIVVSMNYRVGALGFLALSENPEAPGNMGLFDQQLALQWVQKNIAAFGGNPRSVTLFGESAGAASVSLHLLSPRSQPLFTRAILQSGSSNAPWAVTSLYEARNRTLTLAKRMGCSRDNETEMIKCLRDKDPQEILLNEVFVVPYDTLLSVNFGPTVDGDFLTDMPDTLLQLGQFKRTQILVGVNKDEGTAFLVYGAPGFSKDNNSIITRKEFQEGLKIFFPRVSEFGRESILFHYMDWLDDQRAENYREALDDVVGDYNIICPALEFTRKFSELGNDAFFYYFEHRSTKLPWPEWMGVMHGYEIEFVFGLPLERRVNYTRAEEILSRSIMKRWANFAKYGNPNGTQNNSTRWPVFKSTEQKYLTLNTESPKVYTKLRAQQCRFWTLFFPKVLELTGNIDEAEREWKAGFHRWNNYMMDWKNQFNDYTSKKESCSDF

In the case of O=C(CSC(=S)N1CCN(CCO)CC1)Nc1c2ccccc2nc2ccccc12 [Compound 4e, 2-(9-Acridinylamino)-2-oxoethyl 4-(2-hydroxyethyl)piperazine-1-carbodithioate], the “AChE (Electrophorus electricus) inhibitory activity (%) ± SD” value ([1]; 10^-3 M) is reported as 48.67±1.51%, the “AChE (Electrophorus electricus) inhibitory activity (%) ± SD” value ([1]; 10^-4 M) is reported as 7.09 ± 0.64% and the “AChE (Human) inhibitory activity (%) ± SD” value (AChE (Human); 10^-3 M) is reported as 50.22±1.12%. For the same molecule, the “AChE (Human) inhibitory activity (%) ± SD” value (AChE (Human); 10^-4 M) was 10.13 ± 0.51%, the IC50 (BChE (Equine)) was 1.42 ± 0.068 µM and the “BChE (Equine) inhibitory activity (%) ± SD” value (BChE (Equine); 10^-3 M) was 97.00±3.16%. For the same molecule, the “BChE (Equine) inhibitory activity (%) ± SD” value (BChE (Equine); 10^-4 M) was “* 95.98 ± 2.88%”, the “BChE (Equine) inhibitory activity (%) ± SD” value (BChE (Equine); 10^-5 M) was 57.53±1.89% and the “BChE (Equine) inhibitory activity (%) ± SD” value (BChE (Equine); 10^-6 M) was 29.52±1.07%. For the same molecule, the “BChE (Equine) inhibitory activity (%) ± SD” value (BChE (Equine); 10^-7 M) was 24.26±0.54%, the “BChE (Equine) inhibitory activity (%) ± SD” value (BChE (Equine); 10^-8 M) was 18.89±0.84% and the “BChE (Equine) inhibitory activity (%) ± SD” value (BChE (Equine); 10^-9 M) was 10.77±0.58%. The “BChE (Human) inhibitory activity (%) ± SD” value (BChE (Human); 10^-3 M) was 98.95±2.10%, the “BChE (Human) inhibitory activity (%) ± SD” value (BChE (Human); 10^-4 M) was “* 96.57 ± 2.03%” and the “BChE (Human) inhibitory activity (%) ± SD” value (BChE (Human); 10^-5 M) was 55.00±1.20%. The “BChE (Human) inhibitory activity (%) ± SD” value (BChE (Human); 10^-6 M) was 30.62±1.28%, the “BChE (Human) inhibitory activity (%) ± SD” value (BChE (Human); 10^-7 M) was 26.54±0.74% and the “BChE (Human) inhibitory activity (%) ± SD” value (BChE (Human); 10^-8 M) was 17.89±0.53%. The “BChE (Human) inhibitory activity (%) ± SD” value (BChE (Human); 10^-9 M) was 8.72±0.30%, the IC50 (BChE (Human)) was 1.37 ± 0.057 µM and the IC50 [2] was 325 µM.
In the case of O=C(CSC(=S)N1CCN(c2ccc(Cl)cc2)CC1)Nc1c2ccccc2nc2ccccc12 [Compound 4i, 2-(9-Acridinylamino)-2-oxoethyl 4-(4-chlorophenyl)piperazine-1-carbodithioate], the “AChE (Electrophorus electricus) inhibitory activity (%) ± SD” value ([1]; 10^-3 M) is reported as 86.41±2.91%, the “AChE (Electrophorus electricus) inhibitory activity (%) ± SD” value ([1]; 10^-4 M) is reported as 35.91 ± 1.57% and the “AChE (Human) inhibitory activity (%) ± SD” value (AChE (Human); 10^-3 M) is reported as 89.20±1.25%. For the same molecule, the “AChE (Human) inhibitory activity (%) ± SD” value (AChE (Human); 10^-4 M) was 33.85 ± 1.15%, the IC50 (BChE (Equine)) was 2.04 ± 0.068 µM and the “BChE (Equine) inhibitory activity (%) ± SD” value (BChE (Equine); 10^-3 M) was 99.37±3.41%. For the same molecule, the “BChE (Equine) inhibitory activity (%) ± SD” value (BChE (Equine); 10^-4 M) was “* 69.51 ± 1.16%”, the “BChE (Equine) inhibitory activity (%) ± SD” value (BChE (Equine); 10^-5 M) was 44.32±0.79% and the “BChE (Equine) inhibitory activity (%) ± SD” value (BChE (Equine); 10^-6 M) was 38.72±0.82%. The “BChE (Equine) inhibitory activity (%) ± SD” value (BChE (Equine); 10^-7 M) was 33.65±0.45%, the “BChE (Equine) inhibitory activity (%) ± SD” value (BChE (Equine); 10^-8 M) was 26.52±0.80% and the “BChE (Equine) inhibitory activity (%) ± SD” value (BChE (Equine); 10^-9 M) was 25.73±0.70%. The “BChE (Human) inhibitory activity (%) ± SD” value (BChE (Human); 10^-3 M) was 98.22±2.14%, the “BChE (Human) inhibitory activity (%) ± SD” value (BChE (Human); 10^-4 M) was “* 72.90 ± 1.08%” and the “BChE (Human) inhibitory activity (%) ± SD” value (BChE (Human); 10^-5 M) was 42.99±1.02%. For the same molecule, the “BChE (Human) inhibitory activity (%) ± SD” value (BChE (Human); 10^-6 M) was 35.00±0.87%, the “BChE (Human) inhibitory activity (%) ± SD” value (BChE (Human); 10^-7 M) was 30.49±0.56% and the “BChE (Human) inhibitory activity (%) ± SD” value (BChE (Human); 10^-8 M) was 21.77±0.40%. The “BChE (Human) inhibitory activity (%) ± SD” value (BChE (Human); 10^-9 M) was 20.69±0.38%, the IC50 (BChE (Human)) was 2.1 ± 0.085 µM and the IC50 [2] was over 1000 µM.
O=C(CSC(=S)N1CCN(C(c2ccccc2)c2ccccc2)CC1)Nc1c2ccccc2nc2ccccc12 [Compound 4m, 2-(9-Acridinylamino)-2-oxoethyl 4-benzhydrylpiperazine-1-carbodithioate] was tested, and the “AChE (Electrophorus electricus) inhibitory activity (%) ± SD” value ([1]; 10^-3 M) was 71.23±2.15%, the “AChE (Electrophorus electricus) inhibitory activity (%) ± SD” value ([1]; 10^-4 M) was 25.43 ± 1.21% and the “AChE (Human) inhibitory activity (%) ± SD” value (AChE (Human); 10^-3 M) was 75.18±1.21%. For the same molecule, the “AChE (Human) inhibitory activity (%) ± SD” value (AChE (Human); 10^-4 M) was 27.38 ± 1.10%, the IC50 (BChE (Equine)) was 0.092 ± 0.001 µM and the “BChE (Equine) inhibitory activity (%) ± SD” value (BChE (Equine); 10^-3 M) was 99.65±3.86%. The “BChE (Equine) inhibitory activity (%) ± SD” value (BChE (Equine); 10^-4 M) was “* 98.96 ± 3.47%”, the “BChE (Equine) inhibitory activity (%) ± SD” value (BChE (Equine); 10^-5 M) was 90.78±3.92% and the “BChE (Equine) inhibitory activity (%) ± SD” value (BChE (Equine); 10^-6 M) was 80.30±2.56%. For the same molecule, the “BChE (Equine) inhibitory activity (%) ± SD” value (BChE (Equine); 10^-7 M) was 40.34±0.61%, the “BChE (Equine) inhibitory activity (%) ± SD” value (BChE (Equine); 10^-8 M) was 30.24±0.70% and the “BChE (Equine) inhibitory activity (%) ± SD” value (BChE (Equine); 10^-9 M) was 18.98±0.20%. The “BChE (Human) inhibitory activity (%) ± SD” value (BChE (Human); 10^-3 M) was 98.18±2.71%, the “BChE (Human) inhibitory activity (%) ± SD” value (BChE (Human); 10^-4 M) was “* 97.50 ± 2.06%” and the “BChE (Human) inhibitory activity (%) ± SD” value (BChE (Human); 10^-5 M) was 92.54±2.45%. The “BChE (Human) inhibitory activity (%) ± SD” value (BChE (Human); 10^-6 M) was 81.25±2.08%, the “BChE (Human) inhibitory activity (%) ± SD” value (BChE (Human); 10^-7 M) was 44.61±0.79% and the “BChE (Human) inhibitory activity (%) ± SD” value (BChE (Human); 10^-8 M) was 29.11±0.63%. The “BChE (Human) inhibitory activity (%) ± SD” value (BChE (Human); 10^-9 M) was 17.00±0.33%, the “fold better BChE inhibition in comparison with donepezil” value (BChE (Human); ratio of IC50 values) was 15.4 fold and the IC50 (BChE (Human)) was 0.093 ± 0.002 µM. For the same molecule, the IC50 [2] was 214 µM.
Cc1ccc(CN2CCN(C(=S)SCC(=O)Nc3c4ccccc4nc4ccccc34)CC2)cc1 [Compound 4o, 2-(9-Acridinylamino)-2-oxoethyl 4-(4-methylbenzyl)piperazine-1-carbodithioate] was tested, and the “AChE (Electrophorus electricus) inhibitory activity (%) ± SD” value ([1]; 10^-3 M) was 94.97±3.61%, the “AChE (Electrophorus electricus) inhibitory activity (%) ± SD” value ([1]; 10^-4 M) was 25.30 ± 1.01% and the “AChE (Human) inhibitory activity (%) ± SD” value (AChE (Human); 10^-3 M) was 90.29±2.18%. For the same molecule, the “AChE (Human) inhibitory activity (%) ± SD” value (AChE (Human); 10^-4 M) was 30.45 ± 1.15%, the IC50 (BChE (Equine)) was 1.07 ± 0.051 µM and the “BChE (Equine) inhibitory activity (%) ± SD” value (BChE (Equine); 10^-3 M) was 98.64±3.86%. For the same molecule, the “BChE (Equine) inhibitory activity (%) ± SD” value (BChE (Equine); 10^-4 M) was “* 74.83 ± 2.17%”, the “BChE (Equine) inhibitory activity (%) ± SD” value (BChE (Equine); 10^-5 M) was 46.33±0.91% and the “BChE (Equine) inhibitory activity (%) ± SD” value (BChE (Equine); 10^-6 M) was 42.99±0.97%. The “BChE (Equine) inhibitory activity (%) ± SD” value (BChE (Equine); 10^-7 M) was 35.48±0.67%, the “BChE (Equine) inhibitory activity (%) ± SD” value (BChE (Equine); 10^-8 M) was 25.36±0.49% and the “BChE (Equine) inhibitory activity (%) ± SD” value (BChE (Equine); 10^-9 M) was 16.54±0.56%. For the same molecule, the “BChE (Human) inhibitory activity (%) ± SD” value (BChE (Human); 10^-3 M) was 99.25±2.63%, the “BChE (Human) inhibitory activity (%) ± SD” value (BChE (Human); 10^-4 M) was “* 75.25 ± 2.08%” and the “BChE (Human) inhibitory activity (%) ± SD” value (BChE (Human); 10^-5 M) was 48.19±1.12%. For the same molecule, the “BChE (Human) inhibitory activity (%) ± SD” value (BChE (Human); 10^-6 M) was 41.37±0.95%, the “BChE (Human) inhibitory activity (%) ± SD” value (BChE (Human); 10^-7 M) was 37.90±0.71% and the “BChE (Human) inhibitory activity (%) ± SD” value (BChE (Human); 10^-8 M) was 24.71±0.55%. For the same molecule, the “BChE (Human) inhibitory activity (%) ± SD” value (BChE (Human); 10^-9 M) was 20.80±0.48%, the IC50 (BChE (Human)) was 1.07 ± 0.039 µM and the IC50 [2] was over 1000 µM.

From paper PMC6222329 (Molecules : A Journal of Synthetic Chemistry and Natural …, 2018)
